# Values joined by “and” are separate entries in the source; they are usually repeats but may differ in a detail not shown here. Equal values may be shown once. Read-outs that look alike come from different tables or passages of the source. Marks after values point to notes of the source that are not given here.
# Experiments:
# [1] = test system: Squirrel (Saimiri sciureus) monkeys with nigrostriatal damage; experiment: Levodopa-induced dyskinesias in MPTP-lesioned monkeys, nicotine in drinking solution before levodopa (Example 1); assay type: in vivo; conditions: for dyskinetic ratings 3 hours after the afternoon levodopa treatment: scale 0-4, mean ± SE
# Procedure: Animals: Squirrel (Saimiri sciureus) monkeys (n=7) were purchased from World Wide Primates (Miami, Fla.). The animals weighed between 0.6-0.9 kg and were in mid to late adulthood as determined from their general appearance (dentition, fur, other). Female monkeys were used since older animals were available that may better model Parkinson's disease. The animals were placed in quarantine upon arrival, and maintained in a temperature-controlled room (27±3° C.) with a relative humidity>30%, under a 13/11-hour light/dark cycle. Monkey food chow and fruits/vegetables were provided once daily, with water provided ad libitum. The monkeys were housed in separate cages to allow for clear behavioral assessments. The animals were released from quarantine after 1 month and treatments initiated. All procedures conformed to the National Institutes of Health Guide for the Care and Use of Laboratory Animals and were approved by the Institutional Animal Care and Use Committee at the Parkinson's Institute.
# (§1) 1-Methyl-4-phenyl-1,2,3,6-tetrahydropyridine (MPTP) administration: Prior to lesioning, the animals were allowed to acclimate to the colony and rated for parkinsonism as described (Langston et al. Ann Neurol. 2000; 47:S79-89). All values were within the normal range. The monkeys were then injected subcutaneously with 2.0 mg/kg MPTP (Sigma, St-Louis, Mo.) dissolved in saline. The animals were rated for parkinsonism 3-4 weeks after MPTP administration. The disability scores ranged from 0 (normal) to 28 for a severely parkinsonian animal. Animals were assessed for 1) spatial hypokinesia (reduction in use of the available cage space), 2) body bradykinesia (increased slowness in body movement), 3) left and 4) right manual dexterity, 5) balance, 6) freezing and 7) action tremor. If they were not parkinsonian, MPTP injection (1.0-2.0 mg/kg) was repeated from 2-5 times for total doses of 3.5 to 13.5 mg/kg. Despite multiple MPTP dosing, two of the animals were not stably parkinsonian.
# Nicotine treatment: All monkeys (n=7) were then given a drinking solution for 3 weeks consisting of commercially available orange Gatorade® to mask nicotine's bitter taste (FIG. 1). The control group (n=4) was continued on Gatorade® only, while nicotine (free base) was added to the Gatorade of the treated group (n=3). Nicotine dosing was started at 50 μg/ml for 1 week, 150 μg/ml for 1 week, with the concentration increased by […] over the next few weeks, up to 650 μg/ml (FIG. 1).
# Levodopa administration: Monkeys were administered levodopa/carbidopa (5 mg/kg and 1.25 mg/kg, respectively), prepared by crushing a tablet of Sinemet® CR 100/25 (DuPont Pharma) and dissolving it in water. This dose of levodopa is within the range of that prescribed to Parkinson's disease patients. The monkeys were gavaged twice daily at 3.5-hour intervals for 8 weeks at a time using a 5-day-on/2-day-off schedule (Hsu et al., J Pharmacol Exp Ther. 2004; 311:770-777). During levodopa treatment, the monkeys were given fruits in the morning and food pellets 3.5 hours after the afternoon levodopa dose to optimize gastrointestinal absorption.
# Dyskinesias were rated from videotapes, as described (Hsu et al., J Pharmacol Exp Ther. 2004; 311:770-777). This included a one hour baseline period (no drugs) from ˜8:00-9:00 AM, followed by two 3.5-hour treatment periods with levodopa starting at ˜9:00 AM and ˜12:30 PM. Dyskinesias were rated for 2-minute periods at 30-minute intervals by two independent raters blinded to treatment. They were rated on a scale of 0 (no dyskinesias) to 4; a score of 1 was indicative of subtle dyskinesias that were not sustained; 2, mild dyskinesias that were sustained; 3, moderate dyskinesias that impaired the ability to remain stationary; 4, severe dyskinesias that were generalized and incapacitating.
# Data analyses: The levodopa treatment protocol used in the present study involved a 5-day-on/2-day-off schedule.
# [2] = test system: MPTP-lesioned squirrel monkeys; experiment: Parkinsonism rating on or off levodopa in MPTP-lesioned monkeys; assay type: in vivo, Saimiri sciureus; conditions: for Parkinson Ratings Expt 1 / Parkinson Ratings Expt 2 (crossover): individual animals, scale 0-28; for Parkinson Ratings Mean ± SE (n): n=5
# Procedure: as §1
# Data analyses: The levodopa treatment protocol used in the present study involved a 5-day-on/2-day-off schedule. Parkinsonian ratings were done on Monday and Friday of each week, with the score averaged over the two days. Dyskinesias ratings were determined by averaging the scores on Wednesday and Thursday of each week. All values are expressed as the mean±SE of the indicated number of animals. Results were compared using paired t-tests or analysis of variance (ANOVA) followed by Bonferroni multiple comparison post hoc test, using Prism® program (GraphPad Software, Inc, San Diego, Calif.). A level of 0.05 was considered significant.
# White bars indicate no nicotine treatment and black bars indicate nicotine treatment. Parkinsonism was evaluated immediately before the afternoon L-dopa dose and 1.5 to 2 hours after L-dopa treatment, when a maximal antiparkinsonian effect is anticipated. Two of the seven animals in the study were not parkinsonian, and therefore were not included in this analysis. Error bars are the means±standard error of five animals before and after crossover of nicotine treatment. **p<0.01, as compared with the same group with no L-dopa treatment by a Mann-Withney test.
# [3] = on levodopa treatment, 1.5-2 hours after dosing
smiles,measurement,setting,value
"CN1CCCC1c1cccnc1 (stereo not drawn) [Nicotine, S-3-(1-methyl-2-pyrrolidinyl)pyridine]",total dyskinesias (area under the curve of the time course),[1]; all time points vs monkeys not receiving nicotine,significant decrease
same,decline in levodopa-induced dyskinesias,"[1]; animals pretreated with nicotine, levodopa naïve monkeys",~60%
same,levodopa-induced dyskinesias over the course of the day (time course),"[1]; nicotine up to 650 μg/ml in drinking solution, vs monkeys not receiving nicotine, entire 8-week period",significantly reduced
same,peak dyskinesias (maximal dyskinetic score during the morning or afternoon),[1]; throughout the 8-week levodopa treatment vs control,decreased
same,dyskinetic ratings 3 hours after the afternoon levodopa treatment,"[1]; week 2/3 of levodopa treatment, levodopa/carbidopa 5/1.25 mg/kg twice daily",0.3 ± 0.3
same,dyskinetic ratings 3 hours after the afternoon levodopa treatment,[1]; week 4 of levodopa treatment,0*
same,dyskinetic ratings 3 hours after the afternoon levodopa treatment,[1]; week 6 of levodopa treatment,0*
same,dyskinetic ratings 3 hours after the afternoon levodopa treatment,[1]; week 8 of levodopa treatment,0.2 ± 0.2
same,Parkinson Ratings Expt 1,[2]; no levodopa treatment,5.2 and 6.6
same,Parkinson Ratings Expt 2 (crossover),[2]; no levodopa treatment,4.1 and 6.4 and 5.9
same,Parkinson Ratings Mean ± SE (n),[2]; no levodopa treatment,5.6 ± 0.5 (5)
same,Parkinson Ratings Expt 1,[2]; [3],1.7 and 1.5
same,Parkinson Ratings Expt 2 (crossover),[2]; [3],0.8 (2×) and 0.4
same,Parkinson Ratings Mean ± SE (n),[2]; [3],1.0 ± 0.2 (5)
same,effect on parkinsonism,[2]; on or off levodopa treatment,did not affect
same,body weight,minipump 2 mg/kg/d nicotine vs vehicle,similar
same,fluid intake,nicotine in saccharin drinking solution vs vehicle-treated,drank less
same,body weight,"nicotine via drinking water, continued dosing, rats appeared healthy",small difference

# Source: patent US7718677B2, “Methods and compositions for reduction of side effects of therapeutic treatments” (priority 2007, dated 2010)
